Earlier results, collected in patent US20200277251A1, “NOVEL ANTIBACTERIAL COMPOUNDS AND METHODS OF MAKING AND USING SAME” (BROWN UNIVERSITY, priority 2017, published 2020).

System: LT
Details: purified autolysin; cited from earlier work

Question: With `CC1=N[C@@H]2[C@@H](O)[C@H](O)[C@@H](CO)O[C@@H]2S1` [NAG-thiazoline] as the compound, how does the “binding to LT” value read?
Answer: weak binder
